Test results from patent US5955471A, “Tetrahydroisoquinolinealkanol derivatives and pharmaceutical compositions containing same” (SK Corporation, priority 1998, dated 1999).

Tests used:
[1] = system: 5-HT-mediated head-twitch response; assay: Head-Twitch Test (5-HTP-induced head-twitch response in mice); assay type: in vivo; details: oral, vs control vehicle
Protocol: The head-twitch response of mice is initiated by a variety of 5-HT mimetic drugs. The test was conducted in a manner similar to the procedure described by Heal, D. J., Philpot, J, O'Shaughnessy, K. M. and Davies, C. L.: The influence of central noradrenergic function on 5-HT-mediated head-twitch responses in mice: Possible implications for the actions of antidepressant drugs. Psychopharmacology 89: 414-420, 1986,
The head-twitch consisted of a characteristic rotation of the head, neck and shoulders of the mice. The test drug or vehicle was given by oral gavage. Thirty minutes later all animals were pretreated with carbidopa (25 mg/kg ip). Fifteen minutes following carbidopa administration, the mice were injected with 100 mg/kg ip of L-5-hydroxytryptophan (5-HTP). The animals were then left for 30 minutes before measurement of the head-twitch response in the following 2-minute period. For calculation of percent (%) response increase, the difference in drug head twitch number versus the control vehicle head twitch number is divided by the control head twitch and multiplied by 100.

[2] = Behavior Despair (Forced Swimming) test in mice (ip); assay type: in vivo; details: 30 mg/kg (ip), 15-minute test period, vs control vehicle
Protocol: (§1) Behavior Despair (Forced Swimming) test, a well known pharmacological screening method for depression, was conducted similary to the test described by Porsolt, R. D., Bertin, A and Jalfre, M.: Behavior despair in mice: A preliminary screening test for antidepressants. Arch. Int. Pharmacodyn. Ther. 229: 327-336, 1977.
Mice were dosed intraperitoneally (ip) with either test compound or vehicle. One hour later each animal was placed in a 1500 mL glass beaker containing water at room temperature. Mice were kept in the water for a period of 15 minutes and the duration of immobility observed within the 15-minute test period was recorded. A mouse was judged to be immobile if it floated motionlessly in the water making only those movements necessary to keep its head above the water. For calculation of percent (%) reduction in immobility time, the difference in immobility time for control vehicle versus the drug is divided by the immobility time of the control vehicle and multiplied by 100.

[3] = Behavior Despair (Forced Swimming) test in rats (po); assay type: in vivo; details: 60 mg/kg (po), 4-minute test period, vs control vehicle
Protocol: as §1
Rats were pre-swam for 10 minutes the day before the test in 4000 mL glass cylinders containing water at 25° C. On the following day, rats were dosed orally (po) with either test compound or vehicle. One hour later each animal was placed in a glass cylinder and, following a 2-minute pretest, immobility was recorded for a 4-minute test period. For calculation of percent (%) reduction in immobility time, the difference in immobility time for control vehicle versus the drug is divided by the immobility time of the control vehicle and multiplied by 100.

[4] = system: MAO-A; assay: MAO-A inhibiting activity in vitro, rat liver mitochondrial membranes; assay type: biochemical; details: 10 uM; 300 nM deprenyl to block MAO-B; 60 minutes preincubation, 37° C., pH 7.2; [14C] Serotonin
Protocol: The MAO-A activities in vitro were measured using Rat liver mitochondrial membranes as the source of the enzyme, according to a modified method of S. Otsuka & Y. Kobayashi: A Radioisotopic Assay for Monoamine Oxidase Determinations in Human Plasma. Biochem. Pharmacol. 13: 995-1006 (1964)
Rat liver mitochondrial membranes are preincubated with drug or vehicle, and subtype selective blocker (300 nM deprenyl to block the B type of MAO) for 60 minutes at 37° C. in 100 mM KPO4 (pH 7.2). [^14 C] Serotonin ([…]) is then added and incubated for 10 minutes. The reaction is stopped by the addition of 0.5 ml of 2M citric acid. Radioactive product is extracted into a toluene/ethyl acetate fluor and compared to control values by scintillation spectrophotometry in order to ascertain any interactions of test compounds with MAO-A.

## CN1Cc2ccccc2C[C@H]1COC(N)=O [Example 8, (S)-3-Carbamoyloxymethyl-N-methyl-1,2,3,4-tetrahydroisoquinoline]
[1]; 1 mg/kg
  % Response Increase: 77%

## NC(=O)OC[C@@H]1Cc2ccccc2CN1 [Example 5, (S)-3-Carbamoyloxymethyl-1,2,3,4-tetrahydroisoquinoline]
[1]; 3 mg/kg
  % Response Increase: 144%

## CNC(=S)OC[C@@H]1Cc2ccccc2CN1C(=O)Nc1ccccc1 [Example 17, (S)-3-(N-Methyl-thiocarbamoyloxymethyl)-N-(anilinocarbonyl)-1,2,3,4-tetrahydroisoquinoline]
[2]
  % Reduction (immobility time): 46%

## NC(=O)OC[C@@H]1Cc2ccccc2CN1 [Example 3, (S)-3-Carbamoyloxymethyl-1,2,3,4-tetrahydroisoquinoline]
[1]; 1 mg/kg
  % Response Increase: 238%
[3]
  % Reduction (immobility time): 83%
[4]
  % Inhibition (MAO-A): 97.7%

## NC(=O)OC[C@H]1Cc2ccccc2CN1 [Example 4, (R)-3-Carbamoyloxymethyl-1,2,3,4-tetrahydroisoquinoline]
[1]; 15 mg/kg
  % Response Increase: 258%
[4]
  % Inhibition (MAO-A): 63.9%

## CNC(=S)OC[C@@H]1Cc2ccccc2CN1C [Example 18]
[2]
  % Reduction (immobility time): 33%

## CNC(=S)OC[C@@H]1Cc2ccccc2CN1 [Example 16, (S)-3-(N-Methylthiocarbamoyloxymethyl)-1,2,3,4-tetrahydroisoquinoline]
[2]
  % Reduction (immobility time): 56%

## NC(=S)OCC1Cc2ccccc2CN1 (centres unmarked) [Example 14, 3-Thiocarbamoyloxymethyl-1,2,3,4-tetrahydroisoquinoline]
[1]; 8 mg/kg
  % Response Increase: 42%
